These results are taken from patent US11448654B2, “Protein-protein interaction assessed by detecting localized coiled coil subunits” (The Regents of the University of California, priority 2017, dated 2022).

The target in assay [1] is T1, interaction between CRBN and GSPT1 (Homo sapiens, UniProt P15170+Q96SW2).
T1 construct: expressed in transfected cells; host or cells: HEK293
Put plainly: SPARK reporter CRBN-EGFP-HOTag3 / GSPT1-HOTag6 in HEK293 cells. It is filed as cell-based. The note with it: time-lapse imaging. An excerpt: Many analogs and derivatives of IMiDs have recently been designed and explored as drug leads. […] To examine whether SPARK can detect CC-885 induced protein-protein interactions, HOTag6 was genetically fused to GSPT1 and co-expressed with CRBN-EGFP-HOTag3 in HEK293 cells. […] Thus, SPARK also detects CC-885 induced protein-protein interactions.

For assay [2], the system named is protein kinase A (PKA) activity. Put plainly: PKA-SPARK phase separation kinase reporter in HEK293 cells. The format is cell-based, human. The note with it: for effect of pre-incubation on isoprenaline-induced droplet formation / PKA-SPARK signal: HEK293 cells, pre-incubation before isoprenaline. The source says:
To design a SPARK-based PKA, reporter (named PKA-SPARK), a consensus peptide sequence was utilized that is specifically phosphorylated by PKA, as described in Durocher et al., (2000). The molecular basis of FHA domain: phosphopeptide binding specificity and implications for phospho-dependent signaling mechanisms. Mol Cell 6, 1169-1182. To introduce PKA activity-dependent PPI, forkhead-associated domain 1 (FHA1) was sued, which is a phosphothreonine binding domain. […] These two fusion sequences were connected by a “self-cleaving” 2A sequence. The rationale was that substrate and the FHA1 would induce PKA activity-dependent protein-protein interaction, the two HOTags introduce multivalency; and upon PKA activation, multivalent protein-protein interactions would be induced, leading to phase separation and formation of EGFP droplets.
To test the construct, the β-adrenergic agonist isoprenaline was added to HEK293 cells that endogenously express β-adrenergic receptors (βAR). βAR activation induces GDP for GTP exchange in the heteratrimeric G protein Gs, and GTP-bound Gαs activates adenylyl cyclase (AC), which converts ATP into cAMP that activates PKA. […] In order to confirm that the phase separation results from phosphorylation of PKA-SPARK at the expected threonine residue, we changed the threonine to alanine in the PKA substrate sequence.
Next it was tested whether phase separation of the reporter is reversible, i.e. whether the EGFP droplets would disassemble or dissolve when PKA is inactivated. Cells were pre-incubated with isoprenaline to induce phase separation, then isoprenaline was removed and H89 added to inactivate PKA. […] As a control, the EGFP droplets were stable over time in the cells with removal of isoprenaline but addition of medium without H89. […] To examine whether PKA-SPARK could quantitatively measure the droplets' disassembly over time after PKA inhibition, we defined “SPARK signal” as the sum of fluorescent droplets' pixel intensity divided by sum of cells' pixel intensity. Upon addition of H89, the SPARK signal decreased over time. In contrast, for the control the SPARK signal remained constant over time.
Time-lapse fluorescence imaging of PKA-SPARK was performed at 10 seconds per frame. […] PKA activation upon addition of isoprenaline was confirmed by AKAR2 reporter. Small droplets of PKA-SPARK were detected as early as at 20 seconds upon addition of isoprenaline. The quick activation of PKA is consistent with rapid activation of the βAR-cAMP-PKA pathway. The small droplets grew quickly and coalesced into large and intensively fluorescent droplets, which were up to 10-fold brighter than the cellular fluorescence before PKA activation. […] Therefore, PKA-SPARK achieves up to 10-fold fluorescence increase, compared to prior art AKAR2 and PKA-KTR reporters, which have ˜10% and ˜30% fluorescence ratio change, respectively. […] The results also verified that PKA-SPARK could detect PKA activity over a wide range of reporter expression. Lastly the concentration of PKA-SPARK (2-10 μM) appeared to have no effect on kinetics of droplet assembly and disassembly.
In additional experiments, PKA was activated via the G-coupled GPCR βAR. Isoprenaline was added to activate endogenous βARs in HEK293 cells.

Another assay deals with ERK activity. Put plainly: ERK-SPARK phase separation kinase reporter in HEK293 cells. The note with it: for effect of pre-incubation on phase separation of ERK-SPARK upon addition of EGF: HEK293 cells, pre-incubation before EGF.
For the next assay, the system named is PKA activity. As to the kind of experiment: PKA-SPARK in zebrafish embryo muscle cells. It is filed as in vivo. To be noted: 24 hrs APF, upon addition of isoprenaline.

T1 sequence (Q96SW2 whole entry): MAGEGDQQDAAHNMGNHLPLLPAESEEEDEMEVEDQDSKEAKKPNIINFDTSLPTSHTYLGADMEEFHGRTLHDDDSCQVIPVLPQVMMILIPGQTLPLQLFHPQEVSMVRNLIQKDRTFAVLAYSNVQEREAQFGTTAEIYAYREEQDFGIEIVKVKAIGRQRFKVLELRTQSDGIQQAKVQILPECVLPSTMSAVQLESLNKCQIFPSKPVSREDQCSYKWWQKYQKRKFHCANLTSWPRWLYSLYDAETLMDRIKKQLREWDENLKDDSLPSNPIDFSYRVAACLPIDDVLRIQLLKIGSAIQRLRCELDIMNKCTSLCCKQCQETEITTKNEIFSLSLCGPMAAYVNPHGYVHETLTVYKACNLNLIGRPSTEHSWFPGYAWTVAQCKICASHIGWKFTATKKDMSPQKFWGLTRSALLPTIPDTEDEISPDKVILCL
T1 sequence (P15170 whole entry): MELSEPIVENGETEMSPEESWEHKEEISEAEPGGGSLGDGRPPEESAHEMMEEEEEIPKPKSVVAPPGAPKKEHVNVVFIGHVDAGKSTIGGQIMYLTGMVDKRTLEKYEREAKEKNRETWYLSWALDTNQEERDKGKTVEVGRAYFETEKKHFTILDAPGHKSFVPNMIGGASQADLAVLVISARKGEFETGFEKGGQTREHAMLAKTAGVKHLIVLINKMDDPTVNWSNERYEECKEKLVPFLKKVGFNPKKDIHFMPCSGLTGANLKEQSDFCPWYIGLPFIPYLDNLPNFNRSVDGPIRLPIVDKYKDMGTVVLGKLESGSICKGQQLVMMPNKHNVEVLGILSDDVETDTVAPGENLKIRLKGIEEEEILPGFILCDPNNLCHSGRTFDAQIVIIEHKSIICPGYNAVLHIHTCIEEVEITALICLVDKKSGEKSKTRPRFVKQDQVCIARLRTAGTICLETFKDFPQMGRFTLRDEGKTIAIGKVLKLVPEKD
Excerpt for ERK activity: To determine whether the SPARK design generalizes, the highly conserved kinase ERK was utilized in a second pair of reporter fusion proteins. To design a SPARK-based ERK reporter (ERK-SPARK), the ERK activity-sensing motifs that were used for previous FRET-based ERK reporters were employed. One of the ERK activity-sensing motifs is a phosphopeptide sequence from Cdc25C, followed by an ERK-specific docking site that determines substrate specificity. The companion fragment is a WW domain that binds the phosphorylated substrate. The ERK substrate sequence was fused to EGFP followed by HOTag3, and the WW domain was fused to EGFP followed by HOTag6. The two fusions were connected by a “self-cleaving” 2A sequence. The pair of reporter fusion proteins was expressed in HEK293 cells exposed to epidermal growth factor (EGF). EGF binds the EGF receptor, resulting in ERK activation. […] Because the ERK docking site was previously shown to be critical for ERK recognition and binding to substrate, a reporter lacking the 4-amino-acid docking site was generated.
To investigate whether ERK-SPARK could detect GPCR-induced ERK activity, a hexapeptide full agonist for protease-activated receptor-1 was added to HEK293 cells.

As to `Cc1ccc(NC(=O)NCc2ccc3c(c2)CN(C2CCC(=O)NC2=O)C3=O)cc1Cl` (centres unmarked) [CC-885], in assay [1], the “droplet formation (punctal green fluorescence) upon addition” value is “intensely bright and punctal green fluorescence”.

`O=S(=O)(NCCNC/C=C/c1ccc(Br)cc1)c1cccc2cnccc12` [H89]: in assay [2], the “effect of pre-incubation on isoprenaline-induced droplet formation / PKA-SPARK signal” value is recorded as “abolished isoprenaline-induced droplet formation”. For the same compound, in assay [2] (cells pre-incubated with isoprenaline, isoprenaline removed, H89 added), the “EGFP droplet disassembly when PKA is inactivated” value was “EGFP droplets disassembled rapidly”. As for `O=C(NOC[C@H](O)CO)c1ccc(F)c(F)c1Nc1ccc(I)cc1F` [PD 0325901], the “effect of pre-incubation on phase separation of ERK-SPARK upon addition of EGF” value with ERK activity is “abolished phase separation”. Still for that read-out and setting: under `C[S+]([O-])c1ccc(-c2nc(-c3ccncc3)c(-c3ccc(F)cc3)[nH]2)cc1` (centres unmarked) [SB 203580] stands “did not abolish formation of EGFP droplets”. For `COc1ccccc1OCCNCC(O)COc1cccc2[nH]c3ccccc3c12` (centres unmarked) [carvedilol], in assay [2], the “effect of pre-incubation on isoprenaline-induced droplet formation / PKA-SPARK signal” value is “abolished the sustained PKA-SPARK signals”.

In the case of `CC(C)NCC(O)c1ccc(O)c(O)c1` (centres unmarked) [isoprenaline], in assay [2] (endogenous βARs in HEK293 cells), the “persistence of EGFP droplets (sustained PKA activity)” value is reported as “at least 3 hrs”. Further, in assay [2] (reporter-expressing HEK293 cells), the “fluorescent droplet formation upon addition of βAR agonist” value is “fluorescent droplets formed”. For the same compound, in assay [2] (time-lapse imaging at 10 seconds per frame), the “earliest detection of small PKA-SPARK droplets after addition” value is 20 s. For the same compound, the “EGFP droplet formation in muscle cells” value in the assay with PKA activity is on record as “EGFP droplet formation”. As to “EGF: epidermal growth factor; binds the EGF receptor, resulting in ERK activation (NSDSECPLSHDGYCLHDGVCMYIEALDKYACNCVVGYIGERCQYRDLKWWELR; UniProt P01133 971-1023, looked up)”, the “EGFP droplet formation upon addition of stimulus” value in the assay on ERK activity (ERK-SPARK expressing HEK293 cells) was “EGFP droplets formed”.
